# Laboratory results from article PMC12064818, “A general assay platform to study protein pharmacology using ligand-dependent structural dynamics” (Nature Communications, 2025).
# Like-named read-outs stand apart in the source and are kept apart here.
# Key:
# [1] = biological target: P. pyralis FLuc (Photinus pyralis, UniProt P08659); test: FLuc enzymatic luminescence assay, P. pyralis FLuc; type: biochemical; settings: FLuc enzymatic assay; for IC50: read-out: IC50 or SDR50 (mM) FLuc E
# Summary of the method: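 Runs with and without 10 µM ATP: compounds were pre-incubated with FLuc (1–10 nM, PBS pH 7.4) at ambient temperature, light-protected, for 30–60 min. Luminescence was imaged 5 min after adding 10 µM D-luciferin (final). Inhibition was scaled between DMSO neutral and no-enzyme controls.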
# [2] = biological target: FLuc-C-HiBiT (firefly luciferase) (Photinus pyralis, UniProt P08659, form not given/L550V); test: SDR assay, FLuc-C-HiBiT; settings: SDR max. response, clade S
# Sequence of FLuc-C-HiBiT (firefly luciferase) (P08659 2-550 L550V, form open): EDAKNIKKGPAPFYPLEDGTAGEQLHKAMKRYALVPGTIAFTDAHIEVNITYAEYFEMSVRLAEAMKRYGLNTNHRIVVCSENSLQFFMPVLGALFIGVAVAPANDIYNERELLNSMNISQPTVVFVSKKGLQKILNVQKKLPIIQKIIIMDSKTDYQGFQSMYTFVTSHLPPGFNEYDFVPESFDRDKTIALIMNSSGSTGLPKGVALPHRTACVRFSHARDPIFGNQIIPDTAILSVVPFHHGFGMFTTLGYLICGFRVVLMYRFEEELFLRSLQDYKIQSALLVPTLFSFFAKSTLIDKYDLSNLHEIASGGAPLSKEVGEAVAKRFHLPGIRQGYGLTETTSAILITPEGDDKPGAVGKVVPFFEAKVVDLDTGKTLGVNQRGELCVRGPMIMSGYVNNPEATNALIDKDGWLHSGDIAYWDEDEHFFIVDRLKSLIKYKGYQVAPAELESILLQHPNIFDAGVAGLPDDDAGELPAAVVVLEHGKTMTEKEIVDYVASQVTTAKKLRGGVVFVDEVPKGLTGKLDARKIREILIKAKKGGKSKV
# [3] = biological target: T1, NLuc (Oplophorus gracilirostris, UniProt Q9GV45, A31E/A60N/A81I/F95D/I117V/K70R/L54V/L99Q/M102K/N193R/P142E/Q151K/Q38R/Q45L/V71I/Y165I); type: biochemical; settings: - ATP
# T1 construct: His tag (inferred from IMAC purification); made in house; host or cells: E. coli
# T1 sequence (Q9GV45 other isoform, or with tags, fused parts or gaps with the stated changes): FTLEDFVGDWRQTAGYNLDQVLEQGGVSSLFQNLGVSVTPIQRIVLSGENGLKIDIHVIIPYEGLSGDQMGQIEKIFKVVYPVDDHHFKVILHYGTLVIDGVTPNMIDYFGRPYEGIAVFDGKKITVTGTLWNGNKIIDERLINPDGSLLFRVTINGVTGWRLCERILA
# Summary of the method: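 Luminescence was read 10 min after Nano-Glo reagent addition. Enzyme was 1 nM NLuc in PBS/0.05% IGEPAL buffer, with or without ATP.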
# [4] = biological target: FLuc-C-NLuc (firefly luciferase) (Photinus pyralis, UniProt P08659, form not given/L550V); test: SDR assay, FLuc-C-NLuc; settings: - ATP
# Sequence of FLuc-C-NLuc (firefly luciferase) (P08659 2-550 L550V, form open): as the sequence (P08659 2-550 L550V, form open) above
# Sequence of P. pyralis FLuc (P08659 whole entry): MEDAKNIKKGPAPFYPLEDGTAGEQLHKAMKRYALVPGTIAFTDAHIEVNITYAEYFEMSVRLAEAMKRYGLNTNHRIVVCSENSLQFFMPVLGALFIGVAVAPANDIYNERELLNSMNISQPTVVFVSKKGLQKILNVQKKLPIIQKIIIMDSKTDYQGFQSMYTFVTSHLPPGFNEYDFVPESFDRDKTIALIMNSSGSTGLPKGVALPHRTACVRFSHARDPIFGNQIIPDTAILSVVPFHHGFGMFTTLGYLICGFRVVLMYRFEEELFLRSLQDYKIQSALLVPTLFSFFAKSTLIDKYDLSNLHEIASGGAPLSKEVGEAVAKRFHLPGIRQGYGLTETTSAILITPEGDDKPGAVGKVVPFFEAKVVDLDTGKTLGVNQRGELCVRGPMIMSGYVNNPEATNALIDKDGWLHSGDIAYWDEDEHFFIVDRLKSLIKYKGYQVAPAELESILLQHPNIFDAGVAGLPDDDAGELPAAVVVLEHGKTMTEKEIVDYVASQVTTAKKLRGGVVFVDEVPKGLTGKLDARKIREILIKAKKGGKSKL
SMILES,Efficacy (%) FLuc E ([1]; Clade S follow-up) [%],pIC50 or pSDR50 FLuc E ([1]; Clade S follow-up),IC50 ([1]; Clade S follow-up) [mM],"% Activity (max response, + ATP) [2] [%]","% Activity (max response, - ATP) [2] [%]",Efficacy (%) NLuc (- ATP) [3] [%],Efficacy (%) FLuc-C-NLuc SDR (-ATP) [4] [%],pIC50 or pSDR50 FLuc E [1],IC50 [1] [mM]
Cc1ccc(C2Cn3cnc(C(=O)N4CCC(C(=O)NCc5ccccc5)CC4)c3CO2)cc1 (centres unmarked) [NCGC00449884-01],-51.95,4.96,0.0111,91.57,0.00,-9.37,0.00,–,–
O=C(NC1CCCCCC1)C1CCN(C(=O)c2ncn3c2COC(c2ccccc2)C3)CC1 (centres unmarked) [NCGC00449769-01],-80.74,–,–,369.53,0.00,0.00,0.00,5.26,0.00555
Cc1ccc(C2Cn3cnc(C(=O)N4CCC(C(=O)NCc5ccc(F)cc5)CC4)c3CO2)cc1 (centres unmarked) [NCGC00449889-01],-57.95,5.01,0.00988,136.15,0.00,0.00,0.00,–,–
O=C(NCC1CCCO1)C1CCN(C(=O)c2ncn3c2COC(c2ccc(F)cc2)C3)CC1 (centres unmarked) [NCGC00449835-01],-45.21,5.01,0.00988,54.34,0.00,0.00,0.00,–,–
Cc1ccc(C2Cn3cnc(C(=O)N4CCC(C(=O)NCc5ccccc5Cl)CC4)c3CO2)cc1 (centres unmarked) [NCGC00449891-01],-50.12,4.96,0.0111,113.62,0.00,0.00,0.00,–,–
Cc1ccc(C2Cn3cnc(C(=O)N4CCC(C(=O)NCc5cccc(F)c5)CC4)c3CO2)cc1 (centres unmarked) [NCGC00449899-01],-43.90,5.01,0.00988,60.19,0.00,0.00,0.00,–,–
CCCCNC(=O)C1CCN(C(=O)c2ncn3c2COC(c2ccc(F)cc2)C3)CC1 (centres unmarked) [NCGC00449812-01],-17.96,–,–,23.59,0.00,0.00,0.00,4.91,0.0124
CCc1ccc(CNC(=O)C2CCN(C(=O)c3ncn4c3COC(c3ccccc3)C4)CC2)cc1 (centres unmarked) [NCGC00449775-01],-61.62,–,–,294.78,0.00,0.00,0.00,5.01,0.00988
CC(NC(=O)C1CCN(C(=O)c2ncn3c2COC(c2ccc(Cl)cc2)C3)CC1)c1ccccc1 (centres unmarked) [NCGC00449853-01],-16.52,–,–,0.00,0.00,0.00,0.00,–,–
Cc1ccc(C2Cn3cnc(C(=O)N4CCC(C(=O)NCc5cc(F)ccc5F)CC4)c3CO2)cc1 (centres unmarked) [NCGC00449900-01],-40.44,4.96,0.0111,59.08,0.00,0.00,0.00,–,–
